{"source": "patent US11638424B2", "about": "“Mosquito attractant formulations and uses thereof” (priority 2017, dated 2023)", "key": {"[1]": {"test_system": "A. gambiae sensu lato", "assay": "Feeding proportion experiments (90 s on membrane feeder)", "format": "in vivo", "method": "Mosquitoes used in this study were from the laboratory colony of A. gambiae sensu lato (Keele line, University of Glasgow), which was produced by balanced interbreeding of four A. gambiae s.s. strains (H. Hurd, et al. Evolution, 59, 2560-2572 (2005)). Larvae were reared under standard insectary conditions (27±1° C., 70% humidity, 12 h light: 12 h dark cycle) and fed on TetraMin fish flakes (Tetra ltd., Germany). Pupae were transferred into holding cages for emergence. Emerged adults were fed ad libitum on 5% glucose solution, supplemented with 0.05% (w/v) 4-aminobenzoic acid (PABA, Sigma-Aldrich), through soaked filters on top of the 2 ml tubes and with soaked filter pads inside cages. Red blood cells (RBCs) were washed with Roswell Park Memorial Institute (RPMI) medium and stored in RPMI at 50% haematocrit at 4° C. until use. […]\nFifty mosquitoes were isolated in three separate cages (8 cm internal diameter×10 cm in height) covered with netting, and fed on 1 ml of control RBCs, hRBCs or giRBCs, respectively. […] For each group, the number of fully fed mosquitoes compared to unfed controls was immediately recorded. In another set of feeding experiments, serum or a 0.9% physiological saline solution (NaCl, pH 7.4), either with or without 10 μM HMBPP, were offered to mosquitoes during a 5 min feeding window, and the number of fed mosquitoes recorded every minute for each cage separately. […]"}, "[2]": {"test_system": "RBCs", "assay": "Volatile collection (SPME) and GC-MS analysis of RBC headspace", "format": "cell-based, Human", "settings": "10 μM HMBPP, FIGS. 2C and D", "method": "(§1) RBCs (1 ml) were transferred to 4 ml glass vials closed with auto-sampler screw caps, and equilibrated in a thermostat at 38° C. for 15 min. Then, 2.5 μl of HMBPP or Nanopure water were added to the RBCs samples (final concentration: 10 μM HMBPP per sample). Volatiles were collected from the headspace using solid phase micro-extraction (SPME; Supelco, Bellmonte, Pa., USA) (M. J. Yang, el al., J. Chem. Educ., 74, 1130-1132 (1997) and A. K. Borg-Karlson and R. Mozuraitis, Naturforsch., C. 51, 599-602 (1996)). […] Electron ionisation mass spectra were determined at 70 eV with the ion source kept at 230° C. and mass spectra were obtained at mass to charge ratio (m/z) 29-400. […] A similar protocol was used for the quantification of CO2, with the mass spectral data and GC retention times being compared with emission from frozen CO2. The relative amounts of CO2 in arbitrary units were determined from the areas of the respective chromatogram peaks using single ion display mode at m/z 44±0.5 Da. The amounts of identified compounds were quantified by the use of extracted ion chromatograms, since they are very minute. […] The estimations were based on the very same quantifications given in ‘arbitrary area units’. […]"}, "[3]": {"test_system": "RBCs", "assay": "CO2 production of RBCs (GC-MS and quantitative respirometry, IRGA)", "format": "cell-based, Human", "settings": "10 μM HMBPP, FIG. 2B", "method": "as §1"}, "[4]": {"test_system": "A. gambiae s.l.", "settings": "in vivo; cited from earlier work"}, "[5]": {"test_system": "human Vγ9Vδ2 T-cells", "settings": "cited from earlier work"}}}
{"molecule": "C/C(=C\\COP(=O)(O)OP(=O)(O)O)CO", "note": "[HMBPP, (E)-4-hydroxy-3-methyl-but-2-enyl pyrophosphate]", "values": [{"measurement": "proportion of mosquitoes feeding over a range of HMBPP concentrations", "setting": "[1]; RBCs supplemented with different concentrations of HMBPP, below 10 μM", "result": "substantially lower doses are sufficient to trigger enhanced mosquito feeding"}, {"measurement": "proportion of females fed", "setting": "[1]; hRBCs (10 μM HMBPP) vs RBCs, 90 s feeding, FIG. 1B", "result": "more than doubled"}, {"measurement": "increase in aldehydes (C8-C10:al) in headspace of hRBCs compared to RBCs", "setting": "[2]", "result": "1.7-to-5.2 fold"}, {"measurement": "increase in monoterpenes (α- and ß-pinene, limonene) in headspace of hRBCs compared to RBCs", "setting": "[2]", "result": "1.2-to-1.6 fold"}, {"measurement": "increase of the amount of CO2 released into the gas headspace above hRBC suspensions compared to RBCs alone", "setting": "[3]", "result": 16, "unit": "%"}, {"measurement": "innate immune responses in A. gambiae s.l.", "setting": "[4]", "result": "trigger innate immune responses"}, {"measurement": "activation of human Vγ9Vδ2 T-cells", "setting": "[5]", "result": "highly potent activator"}]}
